From patent US9408899B2, “Vaccines against Toxoplasma gondii” (priority 2010, dated 2016)
Like-named read-outs stand apart in the source and are kept apart here. No end group written: not given here.

Tests used:
[1] = test system: splenocytes from HLA-A*1101 transgenic mice; test: IFN-γ ELISpot with splenocytes of immunized HLA-A*1101 transgenic mice; format: in vivo; conditions: for IFN-γ production by splenocytes of lipopeptide-immunized mice: HLA-A*1101 mice immunized twice at three week intervals with lipopeptide in PBS, stimulated with peptides
Experimental: As controls, mice were injected with PBS. Mice were vaccinated twice at 3-week intervals.
Murine splenocytes: Mice were euthanized 7 to 14 days after immunization. Spleens were harvested, pressed through a 70 μm screen to form a single-cell suspension, and depleted of erythrocytes with AKC lysis buffer (160 mM NH4Cl, 10 mM KHCO3, 100 μM EDTA).
5×10^5 splenocytes were plated per well.
Both murine and human cells were plated in at least 3 replicate wells for each condition. Results were expressed as number of spot forming cells (SFCs) per 10^6 PBMCs or per 10^6 murine splenocytes.
All mouse experiments were repeated at least twice, with 4-5 mice for each group.

HLA-A*0201 = HLA-A*0201 (Homo sapiens, UniProt P04439, D140Y/D185E/D98H/E176V/E277Q/G131W/G231S/I119V/I121R/I166T/I218V/L300P/L318F/N151K/N90K/P208A/P217A/Q86G/Q94H/R138H/R169H/T345S); test: MHC-peptide binding assay (inhibition of binding of radiolabeled standard peptide); conditions: for IC50: MHC binding assay, measured IC50 approximates Kd, no unit in table, text b40 speaks of nM, read-out: Affinity (c) HLA-A*0201
Experimental: (§2) Briefly, 1-10 nM of radiolabeled peptides were co-incubated with 1 M-1 nM purified MHC and 1-3 human β2-microglobulin. After 2 days, binding of radiolabeled peptide to corresponding MHC Class I molecule was determined by capturing MHC-peptide complexes on Greiner GREINER® Lumitrac 600 microplates coated with W6/32 antibody and measuring bound counts per minutes using a Topcount microscintillation counter. […] Under conditions used, where [radiolabeled probe]<[MHC] and IC50≧[MHC], measured IC50 values are reasonable approximations of true Kd values.

[2] = test system: Splenic T cells from HLA-A*0201 mice; test: IFN-γ ELISpot with splenocytes of immunized HLA-A*0201 transgenic mice; format: in vivo; conditions: for IFN-γ production from T cells of immunized mice: HLA-A*0201 mice immunized with pooled peptides plus PADRE; for IFN-γ production in vitro by T cells from immunized mice: HLA-A*0201 mice immunized with pooled peptides alone, stimulated with the individual peptide
Experimental: Eleven to fourteen days post immuniztion, spleen cells were isolated and exposed to each individual peptide.
5×10^5 splenocytes were plated per well. All antibodies and reagents used for ELISpot assays were obtained from Mabtech (Cincinnati, Ohio). Cells were plated in at least 3 replicate wells for each condition. Results were expressed as number of spot forming cells (SFCs) per 10^6 PBMCs or per 10^6 murine splenocytes.
Mice were boosted once at a 2-week interval.
Three to five mice from each group were euthanized 7 to 14 days after the last immunization. Spleens were harvested, pressed through a 70 μm screen to form a single-cell suspension, and depleted of erythrocytes with ASK lysis buffer (160 mM NH4Cl, 10 mM KHCO3, 100 μM EDTA).
Each ELISpot experiment was replicated a minimum of twice. P values of ≦0.05 were considered significant.

[3] = test system: splenocytes from HLA-B*0702 transgenic mice; conditions: HF10 administered as lipopeptide with PADRE or with MLA, earlier work; cited from earlier work
HLA-A*1101 = HLA-A*1101 (Homo sapiens, UniProt P04439, A114D/D185E/E176A/F33Y/L180Q/S129P/T187R); test: MHC-peptide binding assay; conditions: unit inferred
Excerpt: Under conditions used, where [radiolabeled probe]<[MHC] and IC50≧[MHC], measured IC50 values are reasonable approximations of true Kd values.

HLA-A*0301 = HLA-A*0301 (Homo sapiens, UniProt P04439); test: MHC-peptide binding assay; conditions: MHC binding affinity; IC50 approximates Kd; unit inferred
Excerpt: (§1) Assays were as described in Sidney, J., et al. Immunome Res 4, 2 (2008).

HLA-A*3001 = HLA-A*3001 (Homo sapiens, UniProt P04439, D140H/D185E/E176W/F33S/G80R/H175R/K168Q/R138E/R41S); test: MHC-peptide binding assay; conditions: MHC binding affinity; IC50 approximates Kd; unit inferred
Excerpt: as §1

HLA-A*3101 = HLA-A*3101 (Homo sapiens, UniProt P04439, A270S/D185E/E176V/E277Q/F33T/G231S/G80R/H175R/I121M/I218V/I322F/K168Q/L300P/L318F/M331R/P217A/Q94H/R138Q/T323A/T345S/T97I/V358M); test: MHC-peptide binding assay; conditions: MHC binding affinity; IC50 approximates Kd; unit inferred
Excerpt: as §1

HLA-A*3301 = HLA-A*3301 (Homo sapiens, UniProt P04439, A270S/D185E/E176V/E277Q/E87N/F33T/G231S/H175R/I121M/I218V/I322F/K168Q/K210R/L300P/L318F/M331R/P217A/Q86R/Q94H/R138Q/T323A/T345S/T97I/V358M/Y195H); test: MHC-peptide binding assay; conditions: MHC binding affinity; IC50 approximates Kd; unit inferred
Excerpt: as §1

HLA-A*6801 = HLA-A*6801 (Homo sapiens, UniProt P04439, A269V/D185E/E176V/E277Q/E87N/F33Y/G231S/I121M/I166T/I218V/L180W/L300P/L318F/N151K/P208A/P217A/Q86R/R169H/T345S); test: MHC-peptide binding assay; conditions: MHC binding affinity; IC50 approximates Kd; unit inferred
Excerpt: as §1

HLA-A03 supertype = test: MHC-peptide binding assay, number of supertype alleles bound; parameters: species or system human; conditions: of six HLA-A03 supertype alleles tested
Excerpt: as §1

HLA-A*0203 = HLA-A*0203 (Homo sapiens, UniProt P04439, A173T/D140Y/D185E/D98H/E277Q/G131W/G231S/I119V/I121R/I166T/I218V/L180W/L300P/L318F/N151K/N90K/P208A/P217A/Q86G/Q94H/R138H/R169H/T345S); test: MHC-peptide binding assay
Experimental: as §2

HLA-A*0202 = HLA-A*0202 (Homo sapiens, UniProt P04439, D140Y/D185E/D98H/E176V/E277Q/G131W/G231S/I119L/I121R/I166T/I218V/L180W/L300P/L318F/N151K/N90K/P208A/P217A/Q67R/Q86G/Q94H/R138H/R169H/T345S); test: biochemical
Experimental: as §2

[4] = Table 3, MHC binding assay, read-out: Affinity^b HLA-A*1101

LpAM9: lipopeptide: palmitic acid-bearing lysine, PADRE, then AMLTAFFLR (GRA6164-172)
IFN-γ production by splenocytes of lipopeptide-immunized mice [1]: higher IFN-γ production than LpRS9

FMIVSISLV [SAG2X351-359]
IC50 (HLA-A*0201): 16 nM
IFN-γ production from T cells of immunized mice [2]: significant IFN-γ production

FLLGLLVHV [SAG3375-383]
IC50 (HLA-A*0201): 6.4 nM
IFN-γ production from T cells of immunized mice [2]: significant IFN-γ production

CC(C)C[C@H](NC(=O)[C@H](CC(C)C)NC(=O)[C@H](CC(=O)O)NC(=O)[C@H](CCCCN)NC(=O)[C@H](Cc1ccccc1)NC(=O)[C@H](CO)NC(=O)[C@@H](N)CCCNC(=N)N)C(=O)N[C@@H](CCCCN)C(=O)N[C@@H](CCCCN)C(=O)O
IFN-γ production on stimulation of spleen cells with the peptide ([1]; HLA-A*1101 mice immunized with a mixture of peptides and adjuvants): not present

HPGSVNEFDF (listed as Toxoplasma gondii) [HF10]
immunogenic in HLA-B07 transgenic mice [3]: not immunogenic

ITMGSLFFV [SPA12-20]
IC50 (HLA-A*0201): 0.16 nM

FVIFACNFV [SAG2X44-52]
IC50 (HLA-A*0201): 34 nM
IFN-γ production from T cells of immunized mice [2]: significant IFN-γ production

FMIAFISCFA [SAG2D180-189]
IC50 (HLA-A*0201): 32 nM
IFN-γ production in vitro by T cells from immunized mice [2]: significant IFN-γ production
IFN-γ production from T cells of immunized mice [2]: significant IFN-γ production

LpKS9: lipopeptide: palmitic acid-bearing lysine, PADRE, then KSFKDILPK (SAG1224-232)
IFN-γ production by splenocytes of lipopeptide-immunized mice [1]: higher IFN-γ production than LpRS9

AVVSLLRLLK
IC50 (HLA-A*1101; [4]): 34 nM
IC50 (HLA-A*0301): 17 nM
IC50 (HLA-A*3001): 8.1 nM
IC50 (HLA-A*3101): 1300 nM
IC50 (HLA-A*3301): 1100 nM
IC50 (HLA-A*6801): 94 nM
SUPERTYPE ALLELES BOUND (HLA-A03 supertype): 4

FLSLSLLVI [SAG2C38-46]
Kd (HLA-A*0201): > 50 nM
IC50 (HLA-A*0201): 736 nM
Kd (HLA-A*0203): 50 to 500 nM
IFN-γ production in vitro by T cells from immunized mice [2]: significant IFN-γ production
IFN-γ production from T cells of immunized mice [2]: significant IFN-γ production
Kd (HLA-A*0202): 50 to 500 nM

STFWPCLLR
IC50 (HLA-A*1101; MHC binding affinity, Table 2b, IC50 approximates Kd, read-out: HLA-A*1101): 10 nM
IC50 (HLA-A*0301): 22 nM
IC50 (HLA-A*3001): 1270 nM
IC50 (HLA-A*3101): 1.2 nM
IC50 (HLA-A*3301): 3.4 nM
IC50 (HLA-A*6801): 0.97 nM
SUPERTYPE ALLELES BOUND (HLA-A03 supertype): 5

FLTDYIPGA [SAG3136-144]
IC50 (HLA-A*0201): 0.7 nM

SSAYVFSVK
IC50 (HLA-A*1101; [4]): 10 nM
IC50 (HLA-A*0301): 12 nM
IC50 (HLA-A*3001): 1830 nM
IC50 (HLA-A*3101): 97 nM
IC50 (HLA-A*3301): 181 nM
IC50 (HLA-A*6801): 2.1 nM
SUPERTYPE ALLELES BOUND (HLA-A03 supertype): 5

GLAAAVVAV [SPA82-90]
IC50 (HLA-A*0201): 9.6 nM
